Assay results published in patent US20050070532A1, “Aryl compounds as modulators of PPARS and methods of treating metabolic disorders” (priority 2003, published 2005).

Tests used:
hPPARα = target: T1, hPPARα (Homo sapiens, UniProt Q07869); assay: cell-based human PPAR-GAL4 chimera luciferase reporter assay in CV-1 cells (PPARα); settings: CV-1 cells transiently transfected with PPAR LBD-GAL4 chimera and luciferase reporter, 24 hours treatment; read-out: hPPAPα (EC50)
T1 construct: expressed in transfected cells; host or cells: CV-1 cells
T1 sequence (Q07869 239-466 limits assumed): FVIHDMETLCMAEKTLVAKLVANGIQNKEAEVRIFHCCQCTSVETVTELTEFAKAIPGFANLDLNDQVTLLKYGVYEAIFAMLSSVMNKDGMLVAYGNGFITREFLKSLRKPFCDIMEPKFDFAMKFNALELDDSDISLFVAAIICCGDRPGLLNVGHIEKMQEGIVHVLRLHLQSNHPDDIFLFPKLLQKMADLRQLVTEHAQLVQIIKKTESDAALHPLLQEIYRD
Description: (§1) The compounds were evaluated in a cell-based assay to determine their human PPAR activity. The plasmids for human PPAR-GAL4 chimeras were prepared by fusing amplified cDNAs encoding the LBDs of PPARs to the C-terminal end of the yeast GAL4 DNA binding domain. CV-1 cells were grown and transiently tranfected with PerFectin (GTS, San Diego, Calif.) according to the manufacturer's protocol along with a luciferase reporter. Eight hours after transfection, 50 μL of cells were replated into 384 well plates (1×10^5 cells/well). Sixteen hours after replating, cells were treated with either compounds or 1% DMSO for 24 hours. Luciferase activity was then assayed with Britelite (Perkin Elmer) following the manufacturer's protocol and measured with either the Perkin Elmer Viewlux or Molecular Devices Acquest.

hPPARγ = target: T2, hPPARγ (Homo sapiens, UniProt P37231); assay: cell-based human PPAR-GAL4 chimera luciferase reporter assay in CV-1 cells (PPARγ); settings: CV-1 cells transiently transfected with PPAR LBD-GAL4 chimera and luciferase reporter, 24 hours treatment
T2 construct: expressed in transfected cells; host or cells: CV-1 cells
T2 sequence (P37231 238-503 limits assumed): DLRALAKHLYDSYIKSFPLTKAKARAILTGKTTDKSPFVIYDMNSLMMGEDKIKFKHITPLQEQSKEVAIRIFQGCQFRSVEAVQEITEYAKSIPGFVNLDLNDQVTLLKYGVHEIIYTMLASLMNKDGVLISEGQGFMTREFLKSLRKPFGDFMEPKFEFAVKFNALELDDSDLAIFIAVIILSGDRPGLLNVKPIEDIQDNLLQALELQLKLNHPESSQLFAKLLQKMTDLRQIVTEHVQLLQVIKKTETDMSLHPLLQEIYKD
Description: as §1

hPPARδ = target: T3, hPPARδ (Homo sapiens, UniProt Q03181); assay: cell-based human PPAR-GAL4 chimera luciferase reporter assay in CV-1 cells (PPARδ); settings: CV-1 cells transiently transfected with PPAR LBD-GAL4 chimera and luciferase reporter, 24 hours treatment
T3 construct: expressed in transfected cells; host or cells: CV-1 cells
T3 sequence (Q03181 211-439 limits assumed): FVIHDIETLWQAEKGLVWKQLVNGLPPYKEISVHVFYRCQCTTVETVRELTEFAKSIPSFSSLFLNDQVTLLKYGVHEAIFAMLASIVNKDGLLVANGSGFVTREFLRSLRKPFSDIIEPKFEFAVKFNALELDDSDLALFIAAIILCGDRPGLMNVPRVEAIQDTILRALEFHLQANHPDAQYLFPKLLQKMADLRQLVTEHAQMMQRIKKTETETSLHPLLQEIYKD
Description: as §1

EC50 (hPPARα) [µM] | EC50 (hPPARγ) [µM] | EC50 (hPPARδ) [µM] | SMILES
> 100 | < 1 | > 100 | O=C(O)c1ccc2ccccc2c1OCCCN(Cc1ccc(C(F)(F)F)cc1C(F)(F)F)c1nc2ccccc2o1
> 100 | < 1 | 1 to 100 | CCCCN(CCCOc1cccc(CC(=O)O)c1)c1ccccn1
< 1 | < 1 | < 1 | O=C(O)Cc1cccc(OCCCN(Cc2ccc(C(F)(F)F)cc2)c2nc3ccccc3s2)c1
> 100 | < 1 | > 100 | CCCCN(CCCOc1c(C(=O)O)ccc2ccccc12)c1ncc(CC)cn1
> 100 | < 1 | 1 to 100 | O=C(O)Cc1cccc(OCCCN(Cc2ccc(C(F)(F)F)cc2C(F)(F)F)c2nc3ccccc3s2)c1
1 to 100 | < 1 | > 100 | CCc1cnc(N(CCCOc2cc3ccccc3cc2C(=O)O)Cc2ccc(C(F)(F)F)cc2C(F)(F)F)nc1
1 to 100 | > 100 | 1 to 100 | CCCCN(CCCOc1cccc(CC(=O)O)c1)c1nc2ccccc2s1
> 100 | 1 to 100 | 1 to 100 | CCCCN(CCCOc1c(C(=O)O)ccc2ccccc12)c1nc2ccccc2s1
> 100 | < 1 | 1 to 100 | O=C(O)Cc1cccc(OCCCN(Cc2ccc(C(F)(F)F)cc2C(F)(F)F)c2nc3ccccc3o2)c1
< 1 | < 1 | < 1 | CCc1cnc(N(CCCOc2cccc(CC(=O)O)c2)Cc2ccc(C(F)(F)F)cc2C(F)(F)F)nc1
1 to 100 | < 1 | > 100 | CCc1cnc(N(CCCOc2c(C(=O)O)ccc3ccccc23)Cc2ccc(C(F)(F)F)cc2C(F)(F)F)nc1
> 100 | 1 to 100 | > 100 | CCCCN(CCCOc1c(C(=O)O)ccc2ccccc12)c1nc2ccccc2o1
> 100 | < 1 | 1 to 100 | CCCCN(CCCOc1cccc(CC(=O)O)c1)c1ncc(CC)cn1
> 100 | < 1 | > 100 | CCCCN(CCCOc1c(C(=O)O)ccc2ccccc12)c1ccccn1
> 100 | < 1 | > 100 | O=C(O)c1ccc2ccccc2c1OCCCN(Cc1ccc(C(F)(F)F)cc1)c1nc2ccccc2s1
> 100 | > 100 | > 100 | CCc1cnc(N(CCCOc2ccc3cc(C(=O)O)ccc3c2)Cc2ccc(C(F)(F)F)cc2C(F)(F)F)nc1
> 100 | < 1 | < 1 | O=C(O)Cc1cccc(OCCCN(Cc2ccc(C(F)(F)F)cc2C(F)(F)F)c2ccccn2)c1
1 to 100 | > 100 | 1 to 100 | CCCCN(CCCOc1cccc(CC(=O)O)c1)c1nc2ccccc2o1
